US10131652B2, “Pyrimidinyloxy benzene derivatives as herbicides” (E. I. DU PONT DE NEMOURS AND COMPANY, priority 2014, dated 2018)

Key:
Type in all cases: in vivo
[1] = test system: barnyardgrass (Echinochloa crus-galli); experiment: Test B pre-/postemergence plant response
How it was run: (§1)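 Greenhouse pots, loam/sand soil; compound formulated with surfactant in non-phytotoxic solvent. Preemergence soil spray and postemergence spray at 1–2 leaf stage run simultaneously. Visual injury, 0–100, about 10 days post-treatment.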

corn (Zea mays) = experiment: Test B pre-/postemergence plant response
How it was run: as §1

[2] = test system: giant foxtail (Setaria faberii); experiment: Test B pre-/postemergence plant response
How it was run: as §1

[3] = test system: pigweed (Amaranthus retroflexus); experiment: Test B pre-/postemergence plant response
How it was run: as §1

[4] = test system: wheat (Triticum aestivum); experiment: Test B pre-/postemergence plant response
How it was run: as §1

[5] = test system: barnyardgrass (Echinochloa crus-galli); experiment: Test C flooded paddy test plant response; settings: Flood, 250 g ai/ha; scale of 0 to 100 where 0 is no effect and 100 is complete control; 13 to 15 days
How it was run: (§2)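 Water-applied treatment: compounds go directly into floodwater standing 3 cm over the soil of pots holding 2-leaf-stage plants. Depth is kept constant; plants stay in a greenhouse 13 to 15 days before visual comparison with controls on a 0–100 scale.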

[6] = test system: ducksalad (Heteranthera limosa); experiment: Test C flooded paddy test plant response; settings: Flood, 250 g ai/ha; scale of 0 to 100 where 0 is no effect and 100 is complete control; 13 to 15 days
How it was run: as §2

rice (Oryza sativa) = experiment: Test C flooded paddy test plant response; settings: Flood, 250 g ai/ha; scale of 0 to 100 where 0 is no effect and 100 is complete control; 13 to 15 days
How it was run: as §2

[7] = test system: small-flower umbrella sedge (Cyperus difformis); experiment: Test C flooded paddy test plant response; settings: Flood, 250 g ai/ha; scale of 0 to 100 where 0 is no effect and 100 is complete control; 13 to 15 days
How it was run: as §2

[8] = test system: blackgrass (Alopecurus myosuroides); experiment: Test D pre-/postemergence plant response
How it was run: (§3)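 Visual injury scoring (0–100) at 13 to 15 days in greenhouse. Preemergence sprays on seeded loam/sand; postemergence sprays on 1–4 leaf plants.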

[9] = test system: galium (catchweed bedstraw, Galium aparine); experiment: Test D pre-/postemergence plant response
How it was run: as §3

[10] = test system: johnsongrass (Sorghum halepense); experiment: Test D pre-/postemergence plant response
How it was run: as §3

[11] = test system: lambsquarters (Chenopodium album); experiment: Test D pre-/postemergence plant response
How it was run: as §3

[12] = test system: large (Lg) crabgrass (Digitaria sanguinalis); experiment: Test D pre-/postemergence plant response
How it was run: as §3

[13] = test system: velvetleaf (Abutilon theophrasti); experiment: Test D pre-/postemergence plant response
How it was run: as §3

[14] = test system: winter wheat (Triticum aestivum); experiment: Test D pre-/postemergence plant response
How it was run: as §3

[15] = 125 g ai/ha, postemergence, 0 to 100 scale, 0 no effect, 100 complete control
[16] = Postemergence, 500 g ai/ha, 0 to 100 scale (0 no effect, 100 complete control)
[17] = Preemergence, 125 g ai/ha, 0 to 100 scale (0 no effect, 100 complete control)
[18] = Preemergence, 500 g ai/ha, 0 to 100 scale where 0 is no effect and 100 is complete control
[19] = Postemergence, 31 g ai/ha, scale 0 to 100 (0 no effect, 100 complete control)
[20] = Postemergence, 62 g ai/ha, scale 0 to 100, 0 no effect, 100 complete control
[21] = Postemergence, 125 g ai/ha, scale 0 to 100, 0 no effect, 100 complete control
[22] = Preemergence, 16 g ai/ha, scale 0 to 100 (0 no effect, 100 complete control)
[23] = Preemergence, 31 g ai/ha, scale 0 to 100 (0 no effect, 100 complete control)
[24] = Preemergence, 62 g ai/ha, scale 0 to 100 (0 no effect, 100 complete control)
[25] = Postemergence, 1000 g ai/ha, 0 to 100 scale (0 no effect, 100 complete control)
[26] = Preemergence, 1000 g ai/ha, 0 to 100 scale (0 no effect, 100 complete control)

Clc1cnc(Oc2ccccc2-c2cc(C3CC3)on2)nc1 [Compound 183]
Plant response rating, Barnyardgrass [1, 15]: 40
Plant response rating, Barnyardgrass [1, 16]: 70
Barnyardgrass plant response rating [1, 17]: 30
Plant response rating, Barnyardgrass [1, 18]: 80
Plant response rating, Corn (corn (Zea mays); [15]): 10
Plant response rating, Corn (corn (Zea mays); [16]): 30
Plant response rating, Foxtail, Giant [2, 15]: 60
Plant response rating, Foxtail, Giant [2, 16]: 80
Foxtail, Giant plant response rating [2, 17]: 80
Plant response rating, Foxtail, Giant [2, 18]: 90
Plant response rating, Pigweed [3, 15]: 100
Plant response rating, Pigweed [3, 16]: 100
Pigweed plant response rating [3, 17]: 90
Plant response rating, Pigweed [3, 18]: 100
Plant response rating, Wheat [4, 15]: 10
Plant response rating, Wheat [4, 16]: 60
Barnyardgrass plant response rating [5]: 0
Ducksalad plant response rating [6]: 85
Rice plant response rating (rice (Oryza sativa)): 0
Sedge, Umbrella plant response rating [7]: 75
Plant response rating (scale 0 to 100), Blackgrass ([8]; Postemergence, 16 g ai/ha): 0
Blackgrass plant response rating [8, 19]: 5
Plant response rating, Blackgrass [8, 20]: 5
Plant response rating, Blackgrass [8, 21]: 20
Plant response rating (scale 0 to 100), Blackgrass ([8]; Preemergence, 125 g ai/ha): 50
Plant response rating, Blackgrass [8, 22]: 0
Plant response rating, Blackgrass [8, 23]: 0
Plant response rating, Blackgrass [8, 24]: 0
Plant response rating (scale 0 to 100), Galium ([9]; Postemergence, 16 g ai/ha): 65
Galium plant response rating [9, 19]: 65
Plant response rating, Galium [9, 20]: 95
Plant response rating, Galium [9, 21]: 95
Plant response rating (scale 0 to 100), Galium ([9]; Preemergence, 125 g ai/ha): 95
Plant response rating, Galium [9, 22]: 50
Plant response rating, Galium [9, 23]: 50
Plant response rating, Galium [9, 24]: 95
Plant response rating (scale 0 to 100), Johnsongrass ([10]; Postemergence, 16 g ai/ha): 0
Johnsongrass plant response rating [10, 19]: 5
Plant response rating, Johnsongrass [10, 20]: 5
Plant response rating, Johnsongrass [10, 21]: 10
Plant response rating (scale 0 to 100), Johnsongrass ([10]; Preemergence, 125 g ai/ha): 45
Plant response rating, Johnsongrass [10, 22]: 0
Plant response rating, Johnsongrass [10, 23]: 5
Plant response rating, Johnsongrass [10, 24]: 20
Plant response rating (scale 0 to 100), Lambsquarters ([11]; Postemergence, 16 g ai/ha): 35
Lambsquarters plant response rating [11, 19]: 65
Lambsquarters plant response rating [11, 20]: 65
Plant response rating, Lambsquarters [11, 21]: 75
Plant response rating (scale 0 to 100), Lambsquarters ([11]; Preemergence, 125 g ai/ha): 100
Plant response rating, Lambsquarters [11, 22]: 80
Plant response rating, Lambsquarters [11, 23]: 85
Plant response rating, Lambsquarters [11, 24]: 90
Plant response rating (scale 0 to 100), Crabgrass, Large ([12]; Postemergence, 16 g ai/ha): 5
Crabgrass, Large plant response rating [12, 19]: 5
Plant response rating, Crabgrass, Large [12, 20]: 5
Plant response rating, Crabgrass, Large [12, 21]: 10
Plant response rating (scale 0 to 100), Crabgrass, Large ([12]; Preemergence, 125 g ai/ha): 100
Plant response rating, Crabgrass, Large [12, 22]: 5
Plant response rating, Crabgrass, Large [12, 23]: 70
Plant response rating, Crabgrass, Large [12, 24]: 98
Plant response rating (scale 0 to 100), Velvetleaf ([13]; Postemergence, 16 g ai/ha): 30
Velvetleaf plant response rating [13, 19]: 55
Velvetleaf plant response rating [13, 20]: 55
Plant response rating, Velvetleaf [13, 21]: 55
Plant response rating (scale 0 to 100), Velvetleaf ([13]; Preemergence, 125 g ai/ha): 100
Plant response rating, Velvetleaf [13, 22]: 40
Plant response rating, Velvetleaf [13, 23]: 80
Plant response rating, Velvetleaf [13, 24]: 90
Plant response rating (scale 0 to 100), Wheat ([14]; Postemergence, 16 g ai/ha): 5
Wheat plant response rating [14, 19]: 20
Wheat plant response rating [14, 20]: 30
Plant response rating, Wheat [14, 21]: 30
Plant response rating (scale 0 to 100), Wheat ([14]; Preemergence, 125 g ai/ha): 0
Plant response rating, Wheat [14, 22]: 0
Plant response rating, Wheat [14, 23]: 0
Plant response rating, Wheat [14, 24]: 0

Clc1cnc(Oc2ccccc2-c2ccon2)nc1 [Compound 185]
Plant response rating, Barnyardgrass [1, 15]: 10
Plant response rating, Barnyardgrass [1, 16]: 40
Barnyardgrass plant response rating [1, 17]: 20
Plant response rating, Barnyardgrass [1, 18]: 70
Plant response rating, Corn (corn (Zea mays); [15]): 0
Plant response rating, Corn (corn (Zea mays); [16]): 10
Plant response rating, Foxtail, Giant [2, 15]: 10
Plant response rating, Foxtail, Giant [2, 16]: 70
Foxtail, Giant plant response rating [2, 17]: 30
Plant response rating, Foxtail, Giant [2, 18]: 90
Plant response rating, Pigweed [3, 15]: 90
Plant response rating, Pigweed [3, 16]: 100
Pigweed plant response rating [3, 17]: 90
Plant response rating, Pigweed [3, 18]: 100
Plant response rating, Wheat [4, 15]: 0
Plant response rating, Wheat [4, 16]: 0
Barnyardgrass plant response rating [5]: 0
Ducksalad plant response rating [6]: 0
Rice plant response rating (rice (Oryza sativa)): 0
Sedge, Umbrella plant response rating [7]: 0
Plant response rating (scale 0 to 100), Blackgrass ([8]; Postemergence, 16 g ai/ha): 0
Blackgrass plant response rating [8, 19]: 0
Plant response rating, Blackgrass [8, 20]: 0
Plant response rating, Blackgrass [8, 21]: 0
Plant response rating (scale 0 to 100), Galium ([9]; Postemergence, 16 g ai/ha): 0
Galium plant response rating [9, 19]: 0
Plant response rating, Galium [9, 20]: 5
Plant response rating, Galium [9, 21]: 5
Plant response rating (scale 0 to 100), Johnsongrass ([10]; Postemergence, 16 g ai/ha): 0
Johnsongrass plant response rating [10, 19]: 0
Plant response rating, Johnsongrass [10, 20]: 5
Plant response rating, Johnsongrass [10, 21]: 5
Plant response rating (scale 0 to 100), Lambsquarters ([11]; Postemergence, 16 g ai/ha): 10
Lambsquarters plant response rating [11, 19]: 10
Lambsquarters plant response rating [11, 20]: 15
Plant response rating, Lambsquarters [11, 21]: 20
Plant response rating (scale 0 to 100), Crabgrass, Large ([12]; Postemergence, 16 g ai/ha): 0
Crabgrass, Large plant response rating [12, 19]: 0
Plant response rating, Crabgrass, Large [12, 20]: 10
Plant response rating, Crabgrass, Large [12, 21]: 10
Plant response rating (scale 0 to 100), Velvetleaf ([13]; Postemergence, 16 g ai/ha): 5
Velvetleaf plant response rating [13, 19]: 10
Velvetleaf plant response rating [13, 20]: 10
Plant response rating, Velvetleaf [13, 21]: 25
Plant response rating (scale 0 to 100), Wheat ([14]; Postemergence, 16 g ai/ha): 0
Wheat plant response rating [14, 19]: 0
Wheat plant response rating [14, 20]: 0
Plant response rating, Wheat [14, 21]: 0

FCc1cc(-c2c(Br)cccc2Oc2ncc(Cl)cn2)no1 [Compound 191]
Plant response rating, Barnyardgrass [1, 25]: 100
Plant response rating, Barnyardgrass [1, 26]: 100
Plant response rating, Corn (corn (Zea mays); [25]): 60
Plant response rating, Foxtail, Giant [2, 25]: 100
Plant response rating, Foxtail, Giant [2, 26]: 100
Plant response rating, Pigweed [3, 25]: 100
Plant response rating, Pigweed [3, 26]: 100
Plant response rating, Wheat [4, 25]: 30
Barnyardgrass plant response rating [5]: 20
Ducksalad plant response rating [6]: 80
Rice plant response rating (rice (Oryza sativa)): 0
Sedge, Umbrella plant response rating [7]: 85
Plant response rating (scale 0 to 100), Blackgrass ([8]; Postemergence, 16 g ai/ha): 0
Blackgrass plant response rating [8, 19]: 0
Plant response rating, Blackgrass [8, 20]: 0
Plant response rating, Blackgrass [8, 21]: 5
Plant response rating (scale 0 to 100), Galium ([9]; Postemergence, 16 g ai/ha): 40
Galium plant response rating [9, 19]: 70
Plant response rating, Galium [9, 20]: 85
Plant response rating, Galium [9, 21]: 85
Plant response rating (scale 0 to 100), Johnsongrass ([10]; Postemergence, 16 g ai/ha): 5
Johnsongrass plant response rating [10, 19]: 5
Plant response rating, Johnsongrass [10, 20]: 5
Plant response rating, Johnsongrass [10, 21]: 5
Plant response rating (scale 0 to 100), Lambsquarters ([11]; Postemergence, 16 g ai/ha): 50
Lambsquarters plant response rating [11, 19]: 70
Lambsquarters plant response rating [11, 20]: 70
Plant response rating, Lambsquarters [11, 21]: 85
Plant response rating (scale 0 to 100), Crabgrass, Large ([12]; Postemergence, 16 g ai/ha): 5
Crabgrass, Large plant response rating [12, 19]: 10
Plant response rating, Crabgrass, Large [12, 20]: 10
Plant response rating, Crabgrass, Large [12, 21]: 20
Plant response rating (scale 0 to 100), Velvetleaf ([13]; Postemergence, 16 g ai/ha): 15
Velvetleaf plant response rating [13, 19]: 30
Velvetleaf plant response rating [13, 20]: 30
Plant response rating, Velvetleaf [13, 21]: 50
Plant response rating (scale 0 to 100), Wheat ([14]; Postemergence, 16 g ai/ha): 0
Wheat plant response rating [14, 19]: 0
Wheat plant response rating [14, 20]: 0
Plant response rating, Wheat [14, 21]: 0
